Data on seven molecules can be found in patent publication US20060063791A1, “(Spirocyclylamido)aminothiophene compounds” (priority 2004, published 2006).

Assay [1] addresses T1, wild-type c-Kit receptor protein endogenously expressed in H526 cells (Homo sapiens, UniProt P10721).
T1 construct: wild-type c-Kit receptor protein that is endogenously expressed in H526 cells; endogenous in cells; host or cells: H526 (ATCC # CRL-5811), human small cell lung cancer
Description: Assay for inhibition of c-Kit in intact cells (C-KIT H526 cell assay, ELISA of SCF-stimulated tyrosine phosphorylation). The assay is classed as cell-based. The following applies: 3 h compound pre-incubation, SCF stimulation 15 min, read-out: IC50 (concentration of compound that inhibits SCF-induced tyrosine phosphorylation of the c-Kit protein by 50%). The protocol:
C-KIT H526 Cell Assay Protocol
I. Assay for Inhibition of c-Kit in Intact Cells
The ability of compounds to inhibit the tyrosine kinase activity of c-Kit was determined in a cell-based ELISA assay using the H526 cell line (ATCC # CRL-5811), which was originally derived from a human small cell lung cancer. The assay determines the ability of compounds to block ligand-stimulated tyrosine phosphorylation of the wild-type c-Kit receptor protein that is endogenously expressed in H526 cells. Cells are pre-incubated with compounds at various concentrations prior to addition of stem cell factor (SCF), the ligand for the c-Kit receptor tyrosine kinase. Cell lysates are then prepared and the c-Kit protein is captured onto a c-Kit antibody-coated 96-well ELISA plate. The phosphotyrosine content of the receptor protein is then monitored by quantitation of the degree of binding of an antibody that recognizes only the phosphorylated tyrosine residues within the captured protein. The antibody used has a reporter enzyme (e.g. horseradish peroxidase, HRP) covalently attached, such that binding of antibody to phosphorylated c-Kit can be determined quantitatively by incubation with an appropriate HRP substrate.
Cell Lysis Buffer: • 50 mM Tris-HCl, pH 7.4 • 150 mM NaCl • 10% Glycerol • 1% Triton X-100 • 0.5 mM EDTA • 1 μg/mL leupeptin • 1 μg/mL aprotinin • 1 mM Sodium orthovanadate
Anti c-Kit Antibody: • 0.5 μg/mL anti c-Kit Ab-3 (Lab Vision, catalog #MS289P1) in 50 mM Sodium bicarbonate, pH 9.
ELISA Assay Plates: • ELISA assay plates are prepared by addition of 100 μL of anti c-Kit antibody to each well of a 96-well Microlite-2 plate (Dynex, catalog # 7417), followed by incubation at 37° C. for 2 h. The wells are then washed twice with 300 μL wash buffer.
Plate Wash Buffer: • PBS containing 0.5% Tween-20 (PBST)
Cell Assay Medium: • RPMI with 0.1% BSA
pY20-HRP: • 25 ng/mL pY20-HRP (Calbiochem, catalog # 525320) in PBS, containing 0.5% Tween-20, 5% BSA, 1 mM Sodium orthovanadate
HRP Substrate: • Chemoluminescent detection reagent (Pierce, catalog # 37075)
Cultures of H526 cells, growing in RPMI with 10% fetal calf serum, were collected by centrifugation, washed twice with PBS, and suspended in cell assay medium. Cells were then distributed into a V-bottom 96-well plate at 7.5×10^4 cells per well in 100 μL cell assay medium.
Compound dilutions were prepared from 10 mM DMSO stocks by dilution in cell assay medium, the final concentration of DMSO in the assay being 0.1%. To compound incubation wells, 50 μL of the test compound was added (compounds are assayed at concentrations between 0.1 nM and […]); to positive and negative control wells, 50 μL cell assay medium containing 0.1% DMSO was added. The cells were then incubated with compound at 37° C. for 3 h. SCF (R&D Systems, catalog #255-SC-010) was then added in order to stimulate the c-Kit receptor and induce its tyrosine phosphorylation. Then, 10 μL of a 1.6 μg/mL solution of SCF in cell assay medium was added to all wells apart from the negative control wells, and the cells were incubated for an additional 15 min at 37° C. Following the addition of ice-cold PBS, the plate was centrifuged at 1000 rpm for 5 min, the medium removed by aspiration, and the cell pellet lysed by the addition of 120 μL ice-cold cell lysis buffer per well. The plate was kept on ice for 20 min and 100 μL of the cell lysates from each well were then transferred to the wells of an ELISA assay plate and incubated at 4° C. for 16 h.
Following incubation of the cell lysates in the ELISA plate, the wells were washed 4 times with 300 μL wash buffer, then 100 μL of the phosphotyrosine detection antibody pY20-HRP was added to each well and the plate incubated at rt for 2 h. The wells were then washed 4 times with 300 μL wash buffer. Then, 50 μL of the chemiluminescent HRP substrate was added to each well for luminometric quantitation of the amount of antiphosphotyrosine-HRP conjugate bound to the plate. […]
A general note: In an ELISA, binding on a coated surface is turned into a signal by an enzyme label.

Assay [2] deals with MO7e human leukemia cells. As to conditions: cited from earlier work.
Assay [3] relates to MO7e human leukemia cells. As to conditions: cited from earlier work. This is another data set of the same source.

Each structure is given as a SMILES string. Counter-ions that a name gives are not always drawn.

T1 sequence (P10721 26-976): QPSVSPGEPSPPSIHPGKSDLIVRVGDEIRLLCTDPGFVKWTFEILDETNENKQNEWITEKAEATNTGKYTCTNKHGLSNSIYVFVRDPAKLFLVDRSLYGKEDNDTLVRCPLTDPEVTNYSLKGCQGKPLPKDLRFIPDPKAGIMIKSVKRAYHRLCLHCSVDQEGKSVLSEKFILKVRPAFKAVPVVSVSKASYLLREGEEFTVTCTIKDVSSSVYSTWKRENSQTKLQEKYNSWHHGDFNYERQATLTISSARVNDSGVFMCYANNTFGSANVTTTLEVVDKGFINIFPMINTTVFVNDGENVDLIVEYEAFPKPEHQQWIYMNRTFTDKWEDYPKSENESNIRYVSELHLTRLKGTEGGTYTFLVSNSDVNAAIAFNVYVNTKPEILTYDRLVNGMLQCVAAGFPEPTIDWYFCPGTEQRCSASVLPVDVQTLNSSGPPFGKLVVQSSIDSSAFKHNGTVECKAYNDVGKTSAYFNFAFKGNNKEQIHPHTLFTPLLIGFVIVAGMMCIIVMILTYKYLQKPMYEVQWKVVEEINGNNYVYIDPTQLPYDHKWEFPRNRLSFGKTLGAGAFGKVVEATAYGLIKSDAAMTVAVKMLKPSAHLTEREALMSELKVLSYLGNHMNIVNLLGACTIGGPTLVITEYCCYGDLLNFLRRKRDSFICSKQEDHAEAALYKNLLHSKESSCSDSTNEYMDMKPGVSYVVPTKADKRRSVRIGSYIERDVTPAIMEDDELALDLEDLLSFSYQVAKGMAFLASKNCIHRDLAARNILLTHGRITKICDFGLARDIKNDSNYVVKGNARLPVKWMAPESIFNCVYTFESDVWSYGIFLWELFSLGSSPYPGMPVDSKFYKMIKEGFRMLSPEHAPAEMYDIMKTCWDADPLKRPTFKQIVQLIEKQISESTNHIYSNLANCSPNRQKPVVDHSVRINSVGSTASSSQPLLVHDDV

In the case of `CN1CCN[C@]2(CC[C@@H](NC(=O)c3sccc3NCc3ccnc4ccccc34)CC2)C1=O` [Compound 1, cis-N-(4-Methyl-5-oxo-1,4-diazaspiro[5.5]undec-9-yl)-3-[(quinolin-4-ylmethyl)amino]thiophene-2-carboxamide], the IC50 in assay [1] was above 15 µM.

For `O=C(N[C@H]1CC[C@@]2(CC1)CC(=O)N(Cc1ccccc1)N2)c1sccc1NCc1ccnc2ccccc12` [Compound 2, cis-N-(2-Benzyl-3-oxo-1,2-diazaspiro[4.5]dec-8-yl)-3-[(quinolin-4-ylmethyl)amino]thiophene-2-carboxamide], in assay [1], the IC50 was above 15 µM. For the molecule `O=C(NC1CCC2(CC1)NC(=O)N(Cc1ccccc1)C2=O)c1sccc1NCc1ccnc2ccccc12` (stereo not drawn) [Compound 3, N-(3-Benzyl-2,4-dioxo-1,3-diazaspiro[4.5]dec-8-yl)-3-[(quinolin-4-ylmethyl)amino]thiophene-2-carboxamide], the IC50 in assay [1] is above 15 µM. Consider `O=C1NC(=O)C2(CCC(NC(=O)c3sccc3NCc3ccnc4ccccc34)CC2)N1` (stereo not drawn) [Compound 4, N-(2,4-Dioxo-1,3-diazaspiro[4.5]dec-8-yl)-3-[(quinolin-4-ylmethyl)amino]thiophene-2-carboxamide], for which the IC50 in assay [1] was above 15 µM. As to `Cc1csc(C(=O)NC2CCC3(CC2)NC(=O)N(CCC(C)C)C3=O)c1NCc1ccnc2ccccc12` (stereo not drawn) [Compound 5, N-[3-(3-Methylbutyl)-2,4-dioxo-1,3-diazaspiro[4.5]dec-8-yl]-4-methyl-3-[(quinolin-4-ylmethyl)amino]thiophene-2-carboxamide], in assay [1], the IC50 is above 15 µM. On the same count and under the same terms, the same measure for `O=C(Nc1ccc2c(c1)C1(CCN(C(=O)OCc3ccccc3)CC1)CN2)c1sccc1NCc1ccnc2ccccc12` [Compound 6]: above 15 µM.

Take `Cc1ccc(NC(=O)c2ccc(CN3CCN(C)CC3)cc2)cc1Nc1nccc(-c2cccnc2)n1` [Gleevec, imatinib mesylate]: the GM-CSF stimulated growth result in assay [2] is “not affected”. Moreover, the apoptosis entry in assay [3] (Kit ligand-stimulated conditions) is recorded as “induces apoptosis”. The Kit ligand-stimulated growth entry in assay [3] (Kit ligand-stimulated) is “inhibited”.
